We go through ten compounds from patent US9834554B2, “BTK inhibitors” (MERCK SHARP & DOHME CORP., priority 2013, dated 2017).

BTK enzyme (recombinant full-length BTK, hBTK), sequence (Q06187 whole entry): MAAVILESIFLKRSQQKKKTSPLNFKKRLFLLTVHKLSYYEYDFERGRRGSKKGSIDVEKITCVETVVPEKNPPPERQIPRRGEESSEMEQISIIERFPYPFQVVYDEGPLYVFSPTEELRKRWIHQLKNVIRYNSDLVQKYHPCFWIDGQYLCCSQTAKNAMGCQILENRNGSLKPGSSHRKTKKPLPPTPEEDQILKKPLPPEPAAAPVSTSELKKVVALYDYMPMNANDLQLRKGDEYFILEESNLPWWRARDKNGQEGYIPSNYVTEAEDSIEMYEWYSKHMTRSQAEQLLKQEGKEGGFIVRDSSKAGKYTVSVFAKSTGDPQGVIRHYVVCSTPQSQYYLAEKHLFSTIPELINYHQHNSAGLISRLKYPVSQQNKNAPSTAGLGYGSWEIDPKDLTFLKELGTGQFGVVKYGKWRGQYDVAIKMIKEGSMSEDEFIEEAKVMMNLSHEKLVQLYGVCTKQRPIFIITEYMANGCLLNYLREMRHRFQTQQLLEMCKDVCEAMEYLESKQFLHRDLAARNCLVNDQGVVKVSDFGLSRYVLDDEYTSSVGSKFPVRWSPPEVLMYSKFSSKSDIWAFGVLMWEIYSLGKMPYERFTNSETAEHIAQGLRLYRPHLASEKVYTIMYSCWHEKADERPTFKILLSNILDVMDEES

The assay addresses BTK enzyme (recombinant full-length BTK, hBTK) (Homo sapiens (Human), UniProt Q06187). Put plainly: Btk enzyme activity assay, LANCE TR-FRET. The settings on record: read-out: BTK binding IC50; 50 pM hBTK, 2 μM biotin-A5-peptide, 25 μM ATP; 60 minute compound & enzyme incubation. (TR-FRET usually uses a lanthanide donor and a delayed reading to cut background.)
Description: Also BTK enzymatic activity was determined with the LANCE (Lanthanide Chelate Excite) TR-FRET (Time-resolved fluorescence resonance energy transfer) assay. […] Phosphorylation reactions were allowed to proceed for 120 minutes. […] After 60 minutes incubation with detection reagents, reaction plates were read on a PerkinElmer EnVision plate reader using standard TR-FRET protocol. Briefly, excitation of donor molecules (Eu-chelate:anti-phospho-antibody) with a laser light source at 337 nm produces energy that can be transferred to Dylight-650 acceptor molecules if this donor:acceptor pair is within close proximity. Fluorescence intensity at both 665 nm (acceptor) and 615 nm (donor) are measured and a TR-FRET ratio calculated for each well (acceptor intensity/donor intensity).
Btk Enzyme Activity Assay Method
BTK enzymatic activity was determined with the LANCE (Lanthanide Chelate Excite) TR-FRET (Time-resolved fluorescence resonance energy transfer) assay. […] Phosphorylation reactions were allowed to proceed for 120 minutes. […] After 60 minutes incubation with detection reagents, reaction plates were read on a PerkinElmer EnVision plate reader using standard TR-FRET protocol. Briefly, excitation of donor molecules (Eu-chelate:anti-phospho-antibody) with a laser light source at 337 nm produces energy that can be transferred to Dylight-650 acceptor molecules if this donor:acceptor pair is within close proximity. Fluorescence intensity at both 665 nm (acceptor) and 615 nm (donor) are measured and a TR-FRET ratio calculated for each well (acceptor intensity/donor intensity).
The IC50 is the concentration needed to halve the response being measured. Turning to `COCC(=O)N1CCO[C@@H](c2nn(-c3ccc(C(=O)Nc4cc(OC)ccn4)cc3)c3c(N)nccc23)C1` [Example 7, 4-{7-amino-3-[(2R)-4-(methoxyacetyl)morpholin-2-yl]-1H-pyrazolo[3,4-c]pyridin-1-yl}-N-(4-methoxypyridin-2-yl)benzamide], the IC50 was found to be 25.2 nM. With `Nc1nccc2c([C@@H]3CCCN(C(=O)C4CCC4)C3)nn(-c3ccc(C(=O)Nc4cc(C(F)(F)F)ccn4)cc3)c12` [Example 20, 4-{7-amino-3-[(3R)-1-(cyclobutylcarbonyl)piperidin-3-yl]-1H-pyrazolo[3,4-c]pyridin-1-yl}-N-[4-(trifluoromethyl)pyridin-2-yl]benzamide], the IC50 stood at 1.6 nM.

For `COCC(=O)N1CCO[C@@H](c2nn(-c3ccc(C(=O)Nc4cc(C(F)(F)F)ccn4)cc3)c3c(N)nccc23)C1` [Example 5, 4-{7-amino-3-[(2R)-4-(methoxyacetyl)morpholin-2-yl]-1H-pyrazolo[3,4-c]pyridin-1-yl}-N-[4-(trifluoromethyl)pyridin-2-yl]benzamide], the IC50 was 3.7 nM. Take `Nc1nccc2c([C@@H]3CCCN(C(=O)C4CC(F)(F)C4)C3)nn(-c3ccc(C(=O)Nc4cc(C(F)(F)F)ccn4)cc3)c12` [Example 17, 4-(7-amino-3-{(3R)-1-[(3,3-difluorocyclobutyl)carbonyl]piperidin-3-yl}-1H-pyrazolo[3,4-c]pyridin-1-yl)-N-[4-(trifluoromethyl)pyridin-2-yl]benzamide]: the IC50 was determined as 2.5 nM.

For `COCCOCC(=O)N1CCC[C@@H](c2nn(-c3ccc(C(=O)Nc4cc(C(F)(F)F)ccn4)cc3)c3c(N)nccc23)C1` [Example 23, 4-(7-amino-3-{(3R)-1-[(2-methoxyethoxy)acetyl]piperidin-3-yl}-1H-pyrazolo[3,4-c]pyridin-1-yl)-N-[4-(trifluoromethyl)pyridin-2-yl]benzamide], the IC50 was 1.2 nM.

For `Nc1nccc2c([C@@H]3CCCN(C(=O)C4CC4(F)F)C3)nn(-c3ccc(C(=O)Nc4cc(C(F)(F)F)ccn4)cc3)c12` (stereo partly drawn) [Example 12, 4-(7-amino-3-{(3R)-1-[(2,2-difluorocyclopropyl)carbonyl]piperidin-3-yl}-1H-pyrazolo[3,4-c]pyridin-1-yl)-N-[4-(trifluoromethyl)pyridin-2-yl]benzamide], the IC50 turned out to be 3 nM. To `Cc1n[nH]cc1C(=O)N1CCC[C@@H](c2nn(-c3ccc(C(=O)Nc4cc(C(F)(F)F)ccn4)cc3)c3c(N)nccc23)C1` [Example 10, 4-(7-amino-3-{(3R)-1-[(3-methyl-1H-pyrazol-4-yl)carbonyl]piperidin-3-yl}-1H-pyrazolo[3,4-c]pyridin-1-yl)-N-[4-(trifluoromethyl)pyridin-2-yl]benzamide] belongs 0.71 nM; to `Nc1nccc2c([C@@H]3CCCN(C(=O)CC4CCC4)C3)nn(-c3ccc(C(=O)Nc4cc(C(F)(F)F)ccn4)cc3)c12` [Example 14, 4-{7-amino-3-[(3R)-1-(cyclobutylacetyl)piperidin-3-yl]-1H-pyrazolo[3,4-c]pyridin-1-yl}-N-[4-(trifluoromethyl)pyridin-2-yl]benzamide], 3.5 nM. In the case of `CC1(C(=O)N2CCC[C@@H](c3nn(-c4ccc(C(=O)Nc5cc(C(F)(F)F)ccn5)cc4)c4c(N)nccc34)C2)COC1` [Example 9, (R)-4-(7-amino-3-(1-(3-methyloxetane-3-carbonyl)piperidin-3-yl)-1H-pyrazolo[3,4-c]pyridin-1-yl)-N-(4-(trifluoromethyl)pyridin-2-yl)benzamide], the IC50 is 0.47 nM.

On to `Nc1nccc2c([C@@H]3CCCN(C(=O)C4CC4)C3)nn(-c3ccc(C(=O)Nc4cc(C(F)(F)F)ccn4)cc3)c12` [Example 24, 4-{7-amino-3-[(3R)-1-(cyclopropylcarbonyl)piperidin-3-yl]-1H-pyrazolo[3,4-c]pyridin-1-yl}-N-[4-(trifluoromethyl)pyridin-2-yl]benzamide], for which the IC50 came to 0.86 nM.
